Measurements from patent US20130158043A1, “PAK INHIBITORS FOR THE TREATMENT OF CANCER” (AFRAXIS, INC., priority 2011, published 2013).

How the values were obtained:
PAK2 (PAK65) = PAK2 (PAK65) (Homo sapiens, UniProt Q13177); experiment: In vitro PAK inhibition assay (Z'-LYTE, SelectScreen Kinase Profiling); assay type: biochemical
Method: (§1) Compounds are screened in 1% DMSO (final) in the well. For 10 point titrations, 3-fold serial dilutions are conducted. All Peptide/Kinase Mixtures are diluted to a 2× working concentration in the appropriate Kinase Buffer
The 2×PAK2 (PAK65)/Ser/Thr 20 mixture is prepared in 50 mM HEPES pH 7.5, 0.01% BRIJ-35, 10 mM MgCl2, 1 mM EGTA. The final 10 μL Kinase Reaction consists of 0.29-6 ng PAK2 (PAK65) and 2 μM Ser/Thr 20 in 50 mM HEPES pH 7.5, 0.01% BRIJ-35, 10 mM MgCl2, 1 mM EGTA.
(§2) Add the following solutions to a well in a 384-well plate: 2.5 μL of 4× Test Compound OR (100 nL 100× Test Compound plus 2.4 μL kinase buffer) • 5 μL of 2× Peptide/Kinase (PAK) Mixture • 2.5 μL of 4×ATP Solution • 2. Shake the plate for 30-seconds • 3. Incubate the PAK Kinase Reaction at room temperature for 60-minutes • 4. Add 5 μL of Development Reagent Solution to each well • 5. Shake the plate for 30-seconds • 6. Incubate the Development Reaction for 60-minutes • 7. Determine the fluorescence using a fluorescence plate reader • 8. Analyze the fluorescence data
(§3) SelectScreen® Kinase Profiling Service uses XLfit from IDBS.

PAK1 = PAK1 (Homo sapiens, UniProt Q13153); experiment: as above; assay type: biochemical
Method: as §1
The 2×PAK1/Ser/Thr 19 mixture is prepared in 50 mM HEPES pH 7.5, 0.01% BRIJ-35, 10 mM MgCl2, 1 mM EGTA.
as §2, §3

PAK-4 = PAK-4 (Homo sapiens, UniProt O96013); experiment: as above; assay type: biochemical; details: read-out: PAK4 IC50
Method: as §1
The 2X PAK-4/Ser/Thr 20 mixture is prepared in 50 mM HEPES pH 7.5, 0.01% BRIJ-35, 10 mM MgCl2, 1 mM EGTA. The final 10 μL Kinase Reaction consists of 0.1-0.75 ng PAK-4 and 2 μM Ser/Thr 20 in 50 mM HEPES pH 7.5, 0.01% BRIJ-35, 10 mM MgCl2, 1 mM EGTA. After the 1 hour Kinase Reaction incubation, 5 μL of a 1:256 dilution of Development Reagent A is added.
as §2, with “Bar-coded Corning, low volume NBS, black 384-well plate (Corning Cat. #3676) • 1. Add the” for “Add the”
SelectScreen® Kinase Profiling Service uses XLfit from IDBS. The dose response curve is curve fit to model number 205 (sigmoidal dose-response model).

PAK3 = PAK3 (Homo sapiens, UniProt O75914); experiment: as above; assay type: biochemical
Method: as §1
The 2×PAK3/Ser/Thr 20 mixture is prepared in 50 mM HEPES pH 7.5, 0.01% BRIJ-35, 10 mM MgCl2, 1 mM EGTA.
as §2, §3

p-PAK1(S144) = molecular target: T1, p-PAK1(S144) (Rattus norvegicus, UniProt P35465); experiment: In vitro p-PAK1(S144) cellular HTRF assay; assay type: cell-based; details: cell line RT4-D6P2T, read-out: pPAK1(S144) IC50
T1 construct: endogenous in cells; host or cells: RT4-D6P2T
From the text: Compounds for treatment of cancer are subject to in vitro cellular HTRF assay for p-PAK1(S144). The cell line is RT4-D6P2T. The HTRF assay kits are obtained from Cisbio Bioassays, 135 South Road, Bedford, Mass. 01730, USA.

PAK2 (PAK65), sequence (Q13177 whole entry): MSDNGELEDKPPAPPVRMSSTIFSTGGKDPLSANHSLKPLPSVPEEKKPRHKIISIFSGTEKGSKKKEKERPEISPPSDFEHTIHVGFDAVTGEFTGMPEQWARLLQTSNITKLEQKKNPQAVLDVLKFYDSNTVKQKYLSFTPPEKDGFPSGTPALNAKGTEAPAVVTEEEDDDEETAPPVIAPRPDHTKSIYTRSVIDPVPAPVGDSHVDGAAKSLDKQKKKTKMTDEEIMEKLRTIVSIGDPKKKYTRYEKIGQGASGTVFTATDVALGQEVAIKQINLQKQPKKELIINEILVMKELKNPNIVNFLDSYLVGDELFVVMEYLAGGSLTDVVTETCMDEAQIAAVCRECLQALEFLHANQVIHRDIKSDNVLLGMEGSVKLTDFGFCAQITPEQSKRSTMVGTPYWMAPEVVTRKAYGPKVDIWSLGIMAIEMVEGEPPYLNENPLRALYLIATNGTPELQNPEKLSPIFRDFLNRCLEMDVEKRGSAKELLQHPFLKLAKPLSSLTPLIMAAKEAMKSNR
PAK1, sequence (Q13153 whole entry): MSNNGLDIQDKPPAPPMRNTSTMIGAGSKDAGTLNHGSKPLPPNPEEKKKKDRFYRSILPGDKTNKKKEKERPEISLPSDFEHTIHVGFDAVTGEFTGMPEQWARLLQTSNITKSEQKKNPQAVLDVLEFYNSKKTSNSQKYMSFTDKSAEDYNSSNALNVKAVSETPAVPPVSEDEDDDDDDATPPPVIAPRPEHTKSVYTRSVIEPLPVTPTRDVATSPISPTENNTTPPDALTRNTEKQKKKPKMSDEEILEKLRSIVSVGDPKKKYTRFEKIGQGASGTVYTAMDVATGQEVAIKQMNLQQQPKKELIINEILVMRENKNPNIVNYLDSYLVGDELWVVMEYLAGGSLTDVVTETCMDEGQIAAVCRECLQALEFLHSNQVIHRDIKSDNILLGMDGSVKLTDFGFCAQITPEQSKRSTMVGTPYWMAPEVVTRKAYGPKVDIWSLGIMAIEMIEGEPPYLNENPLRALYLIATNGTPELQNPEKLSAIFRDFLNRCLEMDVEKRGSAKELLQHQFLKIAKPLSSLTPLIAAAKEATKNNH
PAK3, sequence (O75914 whole entry): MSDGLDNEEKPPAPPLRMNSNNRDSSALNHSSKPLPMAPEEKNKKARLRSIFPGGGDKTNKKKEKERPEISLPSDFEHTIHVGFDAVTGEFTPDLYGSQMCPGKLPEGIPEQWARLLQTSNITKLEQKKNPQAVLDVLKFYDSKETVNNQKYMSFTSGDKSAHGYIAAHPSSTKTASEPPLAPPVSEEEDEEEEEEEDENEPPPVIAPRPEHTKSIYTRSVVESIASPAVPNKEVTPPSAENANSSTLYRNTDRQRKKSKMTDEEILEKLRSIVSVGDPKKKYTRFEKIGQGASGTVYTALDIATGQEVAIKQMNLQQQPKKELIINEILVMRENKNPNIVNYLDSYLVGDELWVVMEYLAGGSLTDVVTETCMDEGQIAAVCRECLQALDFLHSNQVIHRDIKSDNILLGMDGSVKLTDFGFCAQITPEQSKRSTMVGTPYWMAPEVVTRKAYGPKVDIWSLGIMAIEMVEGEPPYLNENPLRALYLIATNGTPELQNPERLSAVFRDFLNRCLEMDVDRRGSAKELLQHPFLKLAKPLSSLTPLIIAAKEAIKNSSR
PAK-4, sequence (O96013 whole entry): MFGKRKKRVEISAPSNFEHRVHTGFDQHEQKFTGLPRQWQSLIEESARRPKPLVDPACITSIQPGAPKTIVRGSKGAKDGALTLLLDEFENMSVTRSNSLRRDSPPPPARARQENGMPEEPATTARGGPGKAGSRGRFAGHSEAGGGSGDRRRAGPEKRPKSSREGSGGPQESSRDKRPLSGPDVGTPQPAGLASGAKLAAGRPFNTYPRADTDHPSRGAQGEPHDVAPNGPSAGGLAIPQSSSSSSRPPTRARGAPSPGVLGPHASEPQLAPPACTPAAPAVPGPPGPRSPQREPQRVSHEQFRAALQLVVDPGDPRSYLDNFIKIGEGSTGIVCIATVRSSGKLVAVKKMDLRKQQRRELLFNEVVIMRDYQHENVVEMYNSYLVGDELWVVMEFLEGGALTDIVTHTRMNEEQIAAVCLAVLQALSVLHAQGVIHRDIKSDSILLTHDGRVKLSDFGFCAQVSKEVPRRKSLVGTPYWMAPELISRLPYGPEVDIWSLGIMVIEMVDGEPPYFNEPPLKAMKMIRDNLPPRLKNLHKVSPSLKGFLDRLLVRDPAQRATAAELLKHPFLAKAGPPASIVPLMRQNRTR
T1 sequence (P35465 whole entry): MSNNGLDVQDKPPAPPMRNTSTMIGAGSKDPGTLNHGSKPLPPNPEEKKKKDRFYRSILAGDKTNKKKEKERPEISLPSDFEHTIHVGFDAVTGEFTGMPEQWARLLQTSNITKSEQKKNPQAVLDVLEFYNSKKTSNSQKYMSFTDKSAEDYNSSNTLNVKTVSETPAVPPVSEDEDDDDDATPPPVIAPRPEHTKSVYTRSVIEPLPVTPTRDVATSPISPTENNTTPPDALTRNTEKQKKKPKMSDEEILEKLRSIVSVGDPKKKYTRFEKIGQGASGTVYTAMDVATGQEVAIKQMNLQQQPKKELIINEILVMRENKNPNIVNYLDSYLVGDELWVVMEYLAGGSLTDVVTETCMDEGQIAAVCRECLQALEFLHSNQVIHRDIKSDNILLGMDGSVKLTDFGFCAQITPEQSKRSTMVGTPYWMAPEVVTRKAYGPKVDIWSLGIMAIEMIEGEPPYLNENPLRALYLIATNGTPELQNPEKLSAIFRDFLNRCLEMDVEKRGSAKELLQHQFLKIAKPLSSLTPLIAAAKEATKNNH

Compound	IC50 (PAK2 (PAK65))	IC50 (PAK1)	IC50 (PAK-4)	IC50 (PAK3)	IC50 (p-PAK1(S144))
CN1CCN(c2ccc(Nc3ncc4ccc(=O)n(Cc5occc5C5CC5)c4n3)cc2)CC1	0.5 to 5 µM	0.5 to 5 µM	0.5 to 5 µM	0.5 to 5 µM	
CN1CCN(c2ccc(Nc3ncc4ccc(=O)n(Cc5ncsc5C5CC5)c4n3)cc2)CC1	0.5 to 5 µM	0.05 to 0.5 µM	0.5 to 5 µM	0.5 to 5 µM	
CCn1c(=O)c(-c2ccc(-c3cccnc3C)cc2)cc2cnc(Nc3ccc(C4CCN(C)CC4)cc3)nc21	0.5 to 5 µM	0.5 to 5 µM	≥ 5 µM	0.5 to 5 µM	
CCn1c(=O)c(-c2ccc(-c3cccnc3C)cc2F)cc2cnc(Nc3ccc(C4CCN(C)CC4)cc3)nc21	0.05 to 0.5 µM	0.05 to 0.5 µM	≥ 5 µM	0.05 to 0.5 µM	
CCn1c(=O)c(-c2ccc(-c3cccnc3C)nc2)cc2cnc(Nc3ccc(C4CCN(C)CC4)cc3)nc21	> 5 µM	> 5 µM	≥ 5 µM	> 5 µM	
CN(C)CCc1ccc(Nc2ncc3cc(-c4cc(N(C)C)c(-c5cccnc5)cc4Cl)c(=O)n(C)c3n2)cc1	0.05 to 0.5 µM	< 0.05 µM	≥ 5 µM	< 0.05 µM	
CN1CCN(c2ccc(Nc3ncc4cc(-c5ccc(-c6cccnc6F)cc5Cl)c(=O)n(C)c4n3)cc2)CC1					0.05 to 0.5 µM
CCN1CCN(c2ccc(Nc3ncc4cc(-c5ccc(-c6cccnc6)cc5Cl)c(=O)n(CC)c4n3)cc2F)CC1 [drawing 727]	< 0.05 µM	< 0.05 µM	≥ 5 µM	< 0.05 µM	
CCN1CCN(c2ccc(Nc3ncc4cc(-c5ccc(-c6cccnc6)cc5Cl)c(=O)n(CC)c4n3)cc2F)CC1 [drawing 756]					0.05 to 0.5 µM

Further lines, results first:

IC50 (PAK2 (PAK65))	IC50 (PAK1)	IC50 (PAK-4)	IC50 (PAK3)	IC50 (p-PAK1(S144))	Compound
< 0.05 µM	< 0.05 µM	0.05 to 0.5 µM	< 0.05 µM		CCn1c(=O)c(-c2ccc(-c3cccnc3F)cc2Cl)cc2cnc(Nc3ccc(C4CCNCC4)cc3)nc21
< 0.05 µM	< 0.05 µM	0.05 to 0.5 µM	< 0.05 µM		CCn1c(=O)c(-c2ccc(-c3cccnc3F)cc2Cl)cc2cnc(Nc3ccc(C4CCN(C)CC4)cc3)nc21
< 0.05 µM	< 0.05 µM	0.5 to 5 µM	< 0.05 µM		CCn1c(=O)c(-c2ccc(-c3cccnc3F)cc2Cl)cc2cnc(Nc3ccc(C4CCN5CCCC5C4)cc3)nc21 (centres unmarked)
< 0.05 µM	< 0.05 µM	0.5 to 5 µM	< 0.05 µM		CCn1c(=O)c(-c2ccc(-c3noc(C)n3)cc2Cl)cc2cnc(Nc3ccc(CCN(C)C)cc3)nc21
< 0.05 µM	< 0.05 µM	0.5 to 5 µM	< 0.05 µM		CCN1CCC(c2ccc(Nc3ncc4cc(-c5ccc(-c6noc(C)n6)cc5Cl)c(=O)n(CC)c4n3)cc2)CC1
< 0.05 µM	< 0.05 µM	≥ 5 µM	< 0.05 µM		Cc1nc(-c2ccc(-c3cc4cnc(Nc5ccc(C6CCN(C)CC6)cc5)nc4n(C)c3=O)c(Cl)c2)no1
< 0.05 µM	< 0.05 µM	0.05 to 0.5 µM	< 0.05 µM		CCn1c(=O)c(-c2ccc(-c3cnc(C)cn3)cc2Cl)cc2cnc(Nc3ccc(C4CCN(C)CC4)cc3)nc21
< 0.05 µM	< 0.05 µM	0.5 to 5 µM	< 0.05 µM		CCn1c(=O)c(-c2ccc(-c3nccnc3C)cc2Cl)cc2cnc(Nc3ccc(C4CCN(C)CC4)cc3)nc21
< 0.05 µM	< 0.05 µM	0.5 to 5 µM	< 0.05 µM		CCn1c(=O)c(-c2ccc(-c3ccnc(C)n3)cc2Cl)cc2cnc(Nc3ccc(C4CCN(C)CC4)cc3)nc21
< 0.05 µM	< 0.05 µM	0.5 to 5 µM	< 0.05 µM		CCn1c(=O)c(-c2ccc(-c3cncc(C)n3)cc2Cl)cc2cnc(Nc3ccc(C4CCN(C)CC4)cc3)nc21
< 0.05 µM	< 0.05 µM	≥ 5 µM	0.05 to 0.5 µM		Cc1cc(-c2nccnc2C)ccc1-c1cc2cnc(Nc3ccc(C4CCN(C)CC4)cc3)nc2n(C)c1=O
